Assay results reported in patent US20220096664A1, “STABILIZED FORMULATIONS CONTAINING IODINATED CONTRAST AGENTS AND CYCLODEXTRINS” (Verrow Pharmaceuticals, Inc., priority 2012, published 2022).
“Also recorded” adds a separate entry of the source. Like-named read-outs stand apart in the source and are kept apart here.

How the values were obtained:
[1] = system: endothelial HMEC cells; conditions: incubation with sodium or potassium iodide; cited from earlier work
[2] = system: bovine aortic endothelial cells; conditions: cited from earlier work
[3] = Photostability: iodide formed after UV light irradiation; type: physicochemical; conditions: pH 8
Procedure: Aqueous solutions comprising iodinated contrast agents were prepared and evaluated in a photolysis chamber as described in the ICH guidance document, Q1B Photostability Testing of New Drug Substances and Products, available from the US Food and Drug Administration, incorporated herein by reference. The solutions were placed in 1 cm×1 cm (3 mL) quartz cuvettes having 2 clear sides and 2 sides etched. Lids were placed on the cuvettes and sealed with a wrap of Parafilm® around the joint. The cuvettes were placed in a photolysis chamber, upright on a flat surface beneath and centered between two horizontal 24 inch fluorescent lamps, (GE, black light F20T12, 20 watt for ultraviolet, or Philips F20T12/CW, 20 watt for visible) placed 6 cm apart. The cuvettes were positioned such that their two clear sides were facing the two lamps.
Cuvettes were spaced ˜2 cm from each other, and no closer than 15 cm from the ends of the lamps. This positioning allowed reproducible light exposure to all cuvettes.
(§1) The lamps were switched on and the solutions irradiated for 18 to 24 hours for the ultraviolet (UV) lamps or 72 to 90 hours for the visible (VIS) light lamps. At the end of the selected irradiation time, the cuvettes were removed from the photolysis chamber and mixed by inversion 2-times. The caps were then removed and 40 microliter aliquots taken and diluted with 1 mL of an aqueous solution containing ˜0.9 mg/mL sodium thiosulfate. The thiosulfate solution converted any I2, IO3^−, and I3^− present in the solution tor such that total iodine species could be determined in one assay.
(§2) The diluted solutions were assayed by high pressure liquid chromatography (HPLC) using a 4.6×250 mm, C-18, 5 micron particle size, reversed phase column with detection at 280 nm for the contrast agent and 230 nm for the thiosulfate and the iodide ion (r). A mobile phase of 30:70 methanol:aqueous buffer (50 mM KH2PO4+7 mL/L 40% tetrabutyl ammonium hydroxide) at 0.75 mL/min was used for elution. Injection volume was 20 microliters. External standards were prepared containing each contrast agent, potassium iodide, and sodium thiosulfate solution and analyzed along with the irradiated samples. The results were reported as weight percentage iodide formed (mg iodide/mg contrast agent times 100).
The absorbance readings at 400 nm due to light exposure were plotted against time of exposure and the resulting correlation used to determine the UV and VIS light exposure. A change in absorbance reading of 0.45 was assumed equivalent to 200 watt hours/square meter for the UV light and a change of 0.51 was assumed equivalent to 1.2 million lux hours for the VIS light. The UV lamps provided 6.62 watts/square meter and the VIS lamps provided 7180 lux.
Aqueous solutions were prepared containing 50 mM contrast agent by diluting commercially available solutions with water. Tromethamine HCl buffer (TRIS), was added to solutions as necessary to increase the TRIS content to that of the commercial product before dilution.
SCD was added to the solutions at various mole ratios and the pH of the solutions adjusted to 7.4 with 0.1N hydrochloric acid or 0.1N sodium hydroxide. The solutions were irradiated with UV light for 18 hours (119 watt hours/m^2) then processed, analyzed and reported as in Example 2. The SCDs evaluated were sulfobutyl ether beta-cyclodextrin with an average degree of substitution of 7 (SBE-704CD), and two 2-hydroxypropyl beta-cyclodextrin derivatives having 6.3 (HP-6.3n/CD) and 4.3 (HP-4.3-βCD) average degrees of substitution.
Aqueous solutions were prepared containing 50 mM contrast agent by diluting commercially available solutions with distilled water. Tromethamine HCl buffer (TRIS), was added to some solutions to increase the buffer content.
The solutions were divided and SBE-7-CD added to one aliquot at a contrast agent:SCD mole ratio of 1:1. The pH of the solutions was adjusted to 5, 6, 7, 7.4 or 8 with 0.1N hydrochloric acid or sodium hydroxide. […]

[4] = type: physicochemical
Procedure: as §1, §2
Aqueous solutions were prepared containing 50 mM iodinated contrast agent, 10 mM tromethamine HCl buffer (TRIS), with and without sulfobutylether beta-cyclodextrin with an average degree of substitution-7 (SBE7-β-CD), or 2-hydroxypropyl beta-cyclodextrin with an average degree of substitution of ˜6.3 (HP6.3-β-CD) or ˜4.3 (HP4.3-β-CD). The iohexol solution was prepared by dissolving solid iohexol powder while the other solutions were prepared by diluting commercial formulated products and adding sufficient TRIS buffer to reach 10 mM. The pH of the solutions was adjusted to 7.4 with 0.1N hydrochloric acid.
Aliquots of the solutions were irradiated with visible light for 72 hours (0.52 million lux hours). Other aliquots were autoclaved for 20 minutes at 121° C., cooled to room temperature and then irradiated with ultraviolet light for 18 hours (119 watt hours/m2). The solutions were then processed, analyzed and reported as in Example 2, except that the chromatographic peaks of the contrast agents were evaluated at 300 nm for both samples and standards.
Aqueous solutions were prepared containing 50 mM iohexol, 0, 2.5, 5, 7.5, or 10 mM tromethamine HCl (TRIS) buffer, with and without 2.5 mM sulfobutylether beta-cyclodextrin with an average degree of substitution-7 (SBE7-β-CD). The pH of the solutions was adjusted to 7.4 with 0.1N hydrochloric acid and the solutions were transferred to glass vials. The vials were stoppered, crimp-capped and autoclaved for 20 minutes at 121° C. The pH of the autoclaved solutions was measured after the solutions were at room temperature.
Aliquots of the autoclaved solutions were irradiated with visible light for 72 hours (0.52 million lux hours) and other aliquots irradiated with ultraviolet light for 18 hours (119 watt hours/m2). The solutions were then processed, analyzed and reported as in Example 2, except that the chromatographic peak of the iohexol was evaluated at 300 nm for both samples and standards.
Aqueous formulations were prepared containing iodinated contrast agents at concentrations used commercially in medical procedures. Sulfobutylether-cyclodextrin, sodium salt, average degree of substitution ˜7 (SBE7CD) was added at varying agent:CD mole ratios. The formulations were placed in glass vials, sealed with rubber stoppers and aluminum crimps, and autoclaved at 121° C. for 20 minutes. […]

[5] = system: Beagle dog; test: Cardiovascular electrophysiology and hemodynamics after injection into the left main coronary artery; type: in vivo
Procedure: Aqueous formulations were prepared containing 755 mg/mL iohexol without (formulation 1) or with (formulation 2) sulfobutylether β-cyclodextrin, sodium salt (average degree of substitution-7) at an iohexol:SCD mole ratio of 1:0.025. The addition of the SCD added 154 mM sodium to the solution as its counterion. The formulations also contained 0.1 mg/mL edetate calcium disodium hydrate, and 1.2 mg/mL tromethamine buffer, with the pH of each solution adjusted to 7.4 with 1N HCl. The solutions were sterilized by filtration through a 0.22 micron filter. […]
The instrumentation provided measurement of right heart pressure, left ventricular pressure, aortic pressure, cardiac output and electrocardiography (ECG). The specific parameters measured were: systolic artery pressure (SAP), mean aortic pressure (MAP), diastolic aortic pressure (DAP), left ventricular systolic pressure (LVSP), left ventricular end diastolic pressure (LVEDP), left ventricle dP/dtmax (an indirect measure of contractile force), left ventricle dP/dtmin, cardiac output (CO), systemic vascular resistance (SVR), pulmonary vascular resistance (PVR), pulmonary artery pressure (PAP), monophasic action potential duration (MAPD30%, 50%, 90%), heart rate (HR), and from the ECG; PR interval, QRS duration, QT/QTc interval, JT/JTc interval (as needed) and arrhythmogenesis.

[6] = contrast media solutions; cited from earlier work

## I [iodide]
[1]
  toxicity in cultured endothelial HMEC cells: causes toxicity

## CN(C(=O)CO)c1c(I)c(C(=O)NCC(O)CO)c(I)c(C(=O)NCC(O)CO)c1I (stereo not drawn) [iomeprol]
[2]; X-ray irradiated contrast agent
  toxicity to bovine aortic endothelial cells: toxic to bovine aortic endothelial cells
[2]; non-irradiated contrast agent
  toxicity to bovine aortic endothelial cells: not toxic

## CC(=O)N(CC(O)CO)c1c(I)c(C(=O)NCC(O)CO)c(I)c(C(=O)NCC(O)CO)c1I (stereo not drawn) [Iohexol, iohexol]
[3]
  stabilization against photolysis by UV light: stabilized iohexol against photolysis by UV light
[4]
  iodide degradant after UV irradiation in the presence of the SCD: Less of the iodide degradant was observed in the presence of the SCD
  stabilization against photolysis by visible light irradiation: the SCD also stabilized the solutions against photolysis by visible light irradiation
[5]; concomitant with injection into the coronary artery
  qualitative alterations in electrocardiographic morphology: QRS complex widening along with ST segment depression; also recorded: Scattered premature ventricular contractions
[5]; intracoronary
  ECG morphology returned to normal after the last injection: within five minutes
[6]
  degradation in solution after exposure to ultraviolet light: formation of iodine and iodide ions
